Measured values taken from the RepoRT retention time repository (doi:10.1016/j.foodchem.2021.129757).

Legend:
Settings in all cases: stereoisomer not certain
[1] = RP, 50 × 0.5 mm, 2.7 µm, 35 °C, 0.01 mL/min, estimated dead time 0.62 min; A: water + 0.1% formic acid, pH 3; B: acetonitrile + 0.1% formic acid, pH 3; gradient (min/%B) 0/5 12/95 14/95 16/5
[2] = RP, Phenomenex Luna Omega Polar C18, 100 × 2.1 mm, 1.6 µm, 40 °C, 0.5 mL/min, estimated dead time 0.44 min; A: water + 0.5% formic acid; B: acetonitrile + 0.5% formic acid; gradient (min/%B) 0/5 3/50 3.1/100 5/100 5.1/5 7/5
[3] = RP, Phenomenex Luna Omega Polar C18, 100 × 2.1 mm, 1.6 µm, 40 °C, 0.5 mL/min, estimated dead time 0.44 min; A: water + 0.1% formic acid + 10 mM ammonium formate; B: acetonitrile; gradient (min/%B) 0/5 8/20 10/100 12/100 12.1/5 14/5
[4] = RP, Waters ACQUITY UPLC HSS T3, 100 × 2.1 mm, 1.8 µm, 30 °C, 0.4 mL/min, estimated dead time 0.55 min; A: water + 0.1% formic acid, pH 3; B: acetonitrile + 0.1% formic acid, pH 3; gradient (min/%B) 0/0 2/0 15/100 22/100 22.1/0 26/0
[5] = RP, Agilent ZORBAX Eclipse XDB-C18, 100 × 2.1 mm, 1.8 µm, 50 °C, 0.4 mL/min, estimated dead time 0.55 min; A: water + 0.1% formic acid, pH 3; B: methanol + 0.1% formic acid, pH 3; gradient (min/%B) 0/2 10/100 14.5/100 14.51/2 16.5/2
[6] = RP, 150 × 2.1 mm, 2.6 µm, 40 °C, 0.35 mL/min, estimated dead time 0.94 min; A: water + 0.1% formic acid, pH 3; B: acetonitrile + 0.1% formic acid, pH 3; gradient (min/%B) 0/0 1/0 12.5/100 14/100 14.2/0 15/0
[7] = RP, 150 × 2.1 mm, 2.6 µm, 40 °C, 0.35 mL/min, estimated dead time 0.94 min; A: water + 0.1% formic acid, pH 3; B: acetonitrile + 0.1% formic acid, pH 3; gradient (min/%B) 0/0 1/5 7/45 8.5/80 10.5/80 11/5 12/5
[8] = RP, Merck LiChrospher RP-18, 250 × 4 mm, 5 µm, 35 °C, 0.3 mL/min, estimated dead time 6.7 min; A: water + 0.5% formic acid; B: acetonitrile + 0.5% formic acid; gradient (min/%B) 0/5 10/5 30/15 45/20 65/20 95/54 110/63 115/5 135/5
[9] = RP, Waters ACQUITY UPLC BEH Shield RP18, 150 × 2.1 mm, 1.7 µm, 40 °C, 0.4 mL/min, estimated dead time 0.83 min; A: water + 0.1% formic acid, pH 3; B: acetonitrile + 0.1% formic acid, pH 3; gradient (min/%B) 0/0 30/50 31/100 37/100 37.1/0
[10] = RP, Agilent InfinityLab Poroshell 120 EC-C18, 100 × 3 mm, 2.7 µm, 25 °C, 0.4 mL/min, estimated dead time 1.1 min; A: water + 0.1% formic acid, pH 3; B: acetonitrile + 0.1% formic acid, pH 3; gradient (min/%B) 0/5 10/25 20/40 24/90 25/90 26/5 30/5
[11] = RP, Waters Atlantis T3, 100 × 2.1 mm, 3 µm, 40 °C, 0.3 mL/min, estimated dead time 0.73 min; A: water + 0.1% trifluoroacetic acid, pH 2; B: acetonitrile + 0.1% trifluoroacetic acid, pH 2; gradient (min/%B) 0/10 1/10 6/40 7/50 8/50 14/70 16/80 20/10 25/10
[12] = RP, Phenomenex Synergi Hydro-RP, 150 × 2 mm, 4 µm, 30 °C, 0.5 mL/min, estimated dead time 0.6 min; A: water + 0.1% formic acid, pH 3; B: acetonitrile + 0.1% formic acid, pH 3; gradient (min/%B) 0/5 1/5 35/45 40/100 45/100
[13] = RP, Phenomenex Luna C18, 150 × 4.6 mm, 3 µm, 25 °C, 0.5 mL/min, estimated dead time 3.2 min; A: water + 0.1% formic acid, pH 3; B: acetonitrile + 0.1% formic acid, pH 3; gradient (min/%B) 0/0 30/30 35/40 50/80 52/80 60/0 65/0
[14] = RP, Waters ACQUITY UPLC BEH Shield RP18, 100 × 2.1 mm, 1.7 µm, 30 °C, 0.6 mL/min, estimated dead time 0.37 min; A: water + 0.1% formic acid, pH 3; B: acetonitrile + 0.1% formic acid, pH 3; gradient (min/%B) 0/0 2/0 7/10 22/95 22.1/0 26/0
[15] = RP, Waters ACQUITY UPLC BEH C18, 100 × 2.1 mm, 1.7 µm, 65 °C, 0.4 mL/min, estimated dead time 0.55 min; A: water + 0.1% formic acid, pH 3; B: 80% acetonitrile + 20% acetone + 0.1% formic acid, pH 3; gradient (min/%B) 0/0 5/100 5.5/0 6/0
[16] = RP, Phenomenex Kinetex EVO C18, 100 × 2.1 mm, 2.6 µm, 40 °C, 0.4 mL/min, estimated dead time 0.55 min; A: water + 0.2% formic acid; B: acetonitrile + 0.2% formic acid; gradient (min/%B) 0/5 0.5/5 7/95 8/95 8.5/5 12/5
[17] = RP, Waters ACQUITY UPLC HSS T3, 100 × 2.1 mm, 50 °C; A: water + 0.1% formic acid, pH 3; B: 30% methanol + 70% acetonitrile + 0.1% formic acid, pH 3; gradient (min/%B) 0/5 1/8 2/15 3/40 4/70 4.5/100 5/100 6.4/100 6.6/5 6.8/5 7/5
[18] = RP, Agilent ZORBAX RRHD Eclipse Plus C18, 50 × 2.1 mm, 1.8 µm, 30 °C, 0.4 mL/min, estimated dead time 0.28 min; A: water + 0.1% formic acid, pH 3; B: acetonitrile + 0.1% formic acid, pH 3; gradient (min/%B) 0/1 5/10 8/25 9.1/99 10/99 12/1
[19] = RP, Agilent ZORBAX RRHD Eclipse Plus C18, 50 × 2.1 mm, 1.8 µm, 30 °C, 0.4 mL/min, estimated dead time 0.28 min; A: water + 0.1% formic acid, pH 3; B: acetonitrile + 0.1% formic acid, pH 3; gradient (min/%B) 0/1 5/10 8/25 9.1/99 10/99 12/99
[20] = RP, Phenomenex Synergi Hydro-RP, 250 × 2 mm, 4 µm, 25 °C, 0.2 mL/min, estimated dead time 2.5 min; A: water + 0.1% formic acid, pH 3; B: acetonitrile + 0.1% formic acid, pH 3; gradient (min/%B) 0/0.5 7/0.5 12/12.5 25/16.3 47/35 48/65 50/65 50.1/0.5

CCCCCCCCCCCCCCCCCc1cc(O)cc(O)c1 [Alkylresorcinol C17:0]
LC retention time [1]: 13.3 min
LC retention time [2]: 4.6 min
LC retention time [3]: 11.1 min
LC retention time [4]: 20.3 min
LC retention time [5]: 11.1 min

O=C1CC(c2ccc(O)cc2)Oc2cc(O)cc(O)c21 (stereo not given) [Naringenin]
LC retention time [6]: 7.61 min
LC retention time [7]: 7.97 min
LC retention time [8]: 95.6 min
LC retention time [4]: 11.6 min
LC retention time [9]: 21.1 min
LC retention time [10]: 16.3 min
LC retention time [11]: 10.1 min

OCC1OC(Oc2cc3c(O)cc(O)cc3[o+]c2-c2ccc(O)c(O)c2)C(O)C(O)C1O (stereo not given) [Cyanidin 3-O-glucoside]
LC retention time [1]: 3.25 min
LC retention time [12]: 9.85 min
LC retention time [2]: 1.76 min
LC retention time [13]: 9.83 min
LC retention time [8]: 49 min
LC retention time [4]: 7.85 min
LC retention time [5]: 3.52 min
LC retention time [14]: 10.8 min
LC retention time [9]: 7.98 min
LC retention time [10]: 5.65 min
LC retention time [11]: 5.04 min

COc1ccc(-c2cc(=O)c3c(OC)c(OC)c(OC)c(OC)c3o2)cc1 [Tangeretin]
LC retention time [1]: 7.8 min
LC retention time [12]: 36.5 min
LC retention time [2]: 3.93 min
LC retention time [13]: 49 min
LC retention time [4]: 13.7 min
LC retention time [5]: 8.59 min
LC retention time [14]: 16.9 min
LC retention time [9]: 26.7 min
LC retention time [10]: 22.8 min

CC1OC(OCC2OC(Oc3cc4c(O)cc(O)cc4[o+]c3-c3ccc(O)c(O)c3)C(O)C(O)C2O)C(O)C(O)C1O (stereo not given) [Cyanidin-3-O-rutinoside]
LC retention time [8]: 49.6 min
LC retention time [9]: 6.43 min

COc1cc(C=O)cc(OC)c1O [Syringaldehyde]
LC retention time [6]: 5.74 min
LC retention time [7]: 5.66 min
LC retention time [8]: 58.1 min
LC retention time [15]: 2.11 min

O=c1c(O)c(-c2ccc(OC3OC(CO)C(O)C(O)C3O)c(O)c2)oc2cc(O)cc(O)c12 (stereo not given) [Quercetin 4-O-glucoside]
LC retention time [6]: 6.09 min
LC retention time [8]: 78 min
LC retention time [11]: 7.94 min

OCCc1ccc(O)c(O)c1 [Hydroxytyrosol]
LC retention time [1]: 1.67 min
LC retention time [13]: 8.55 min
LC retention time [3]: 2.05 min
LC retention time [4]: 7.27 min
LC retention time [5]: 2.44 min
LC retention time [9]: 3.26 min
LC retention time [10]: 3.8 min

CC1CCC2(C(=O)O)CCC3(C)C(=CCC4C5(C)CCC(O)C(C)(C)C5CCC43C)C2C1C (stereo not given) [Ursolic acid]
LC retention time [1]: 11.2 min
LC retention time [2]: 1.8 min
LC retention time [3]: 10.9 min
LC retention time [4]: 18.1 min
LC retention time [5]: 10.7 min
LC retention time [14]: 22.7 min
LC retention time [9]: 34.2 min

CCOC(=O)C=Cc1ccc(O)c(O)c1 [Ethyl Caffeate]
LC retention time [8]: 92.7 min

CC=C1C(OC2OC(CO)C(O)C(O)C2O)OC=C(C(=O)OC)C1CC(=O)OCCc1ccc(O)c(O)c1 (stereo not given) [Oleuropein]
LC retention time [16]: 5.24 min
LC retention time [8]: 83.2 min
LC retention time [11]: 8.38 min

CCCCCCCCCCCCCCCCCCCCCCCCCc1cc(O)cc(O)c1 [Alkylresorcinol C25:0]
LC retention time [2]: 5.12 min
LC retention time [3]: 11 min
LC retention time [5]: 13 min

CCOC(=O)c1cc(O)c(O)c(O)c1 [Ethyl Gallate]
LC retention time [8]: 53.9 min

COc1cc(-c2oc3cc(O)cc(O)c3c(=O)c2OC2OC(COC3OC(C)C(O)C(O)C3O)C(O)C(O)C2O)ccc1O (stereo not given) [Isorhamnetin-3-O-rutinoside]
LC retention time [6]: 5.8 min
LC retention time [7]: 5.95 min
LC retention time [8]: 71.3 min

O=C(O)/C=C/c1cccc(O)c1 [m-Coumaric acid]
LC retention time [17]: 3.53 min
LC retention time [8]: 63.4 min
LC retention time [15]: 2.14 min
LC retention time [18]: 7.72 min
LC retention time [19]: 7.99 min
LC retention time [20]: 33.9 min
LC retention time [11]: 7.5 min

CCC=CCC1C(=O)CCC1CC(=O)O (stereo not given) [Jasmonic Acid]
LC retention time [8]: 96.2 min

OCCc1ccc(O)cc1 [Tyrosol]
LC retention time [8]: 38.7 min

O=C(O)CC(O)C(=O)O (stereo not given) [malic acid]
LC retention time [8]: 8.06 min
LC retention time [20]: 3.87 min

O=c1cc(-c2ccc(O)c(O)c2)oc2cc(OC3OC(CO)C(O)C(O)C3O)cc(O)c12 (stereo not given) [Luteolin 7-glucoside]
LC retention time [6]: 5.68 min
LC retention time [7]: 5.79 min
LC retention time [8]: 62.2 min
LC retention time [9]: 12.4 min
LC retention time [11]: 7.79 min

COc1cc(-c2oc3cc(O)cc(O)c3c(=O)c2OC2OC(CO)C(O)C(O)C2O)ccc1O (stereo not given) [Isorhamnetin-3-O-glucoside]
LC retention time [8]: 78.5 min
LC retention time [20]: 38.7 min
LC retention time [11]: 7.94 min

COc1cc(C=CC(=O)O)cc(OC)c1OC [o-Methylsinapic acid]
LC retention time [6]: 7.02 min
LC retention time [7]: 7.28 min
LC retention time [8]: 90.1 min
LC retention time [9]: 15.8 min

O=Cc1ccc(CO)o1 [5-Hydroxymethylfurfural]
LC retention time [8]: 24.2 min
